Three compounds from BindingDB's records for doi:10.7270/Q2XD103V (Vanderbilt Screening Center for GPCRs, Ion Channels and …, 2010) can be followed below.

The experiment addresses T1, Muscarinic acetylcholine receptor M4 (Rattus norvegicus, UniProt P08485).
T1 sequence (P08485 whole entry): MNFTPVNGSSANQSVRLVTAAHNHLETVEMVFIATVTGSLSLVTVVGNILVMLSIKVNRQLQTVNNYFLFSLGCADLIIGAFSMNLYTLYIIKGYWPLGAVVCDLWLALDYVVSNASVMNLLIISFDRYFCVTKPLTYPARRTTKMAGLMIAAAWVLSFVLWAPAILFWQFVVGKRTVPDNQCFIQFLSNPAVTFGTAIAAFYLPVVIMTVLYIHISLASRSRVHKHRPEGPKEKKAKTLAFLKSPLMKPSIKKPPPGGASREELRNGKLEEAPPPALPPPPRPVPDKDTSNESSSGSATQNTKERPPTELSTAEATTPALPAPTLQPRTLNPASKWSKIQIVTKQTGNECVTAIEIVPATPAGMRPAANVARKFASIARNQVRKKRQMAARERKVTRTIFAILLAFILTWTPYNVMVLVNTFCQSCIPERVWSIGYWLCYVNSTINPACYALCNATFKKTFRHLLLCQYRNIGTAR
As to the kind of experiment: M4 receptor positive allosteric modulators, SAR follow-up, cell-based, rat M4, analogs (AID 1938).
One may read the EC50 as the concentration at which the effect is half-maximal. The low end stands for greater potency, the high end for weaker potency. Turning to `COc1ccc(CNC(=O)c2sc3nc(OCc4ccncc4)cc(C)c3c2N)cc1` [3-amino-4-methyl-N-p-anisyl-6-(4-pyridylmethoxy)thieno[2,3-b]pyridine-2-carboxamide], the EC50 is 1960 nM. Compound `Cc1cc(C)c2c(N)c(C(=O)NCc3ccc4c(c3)OCO4)sc2n1` [3-amino-4,6-dimethyl-N-piperonyl-thieno[2,3-b]pyridine-2-carboxamide] had an EC50 of 403 nM.

As for `Cc1cc(OCc2ccncc2)nc2sc(C(=O)NCc3cccc(F)c3F)c(N)c12` [3-amino-N-(2,3-difluorobenzyl)-4-methyl-6-(4-pyridylmethoxy)thieno[2,3-b]pyridine-2-carboxamide], the response was half-maximal at 1670 nM (EC50).
